Reference: ChEMBL document CHEMBL1201862, “PubChem BioAssay data set” (2004)
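96-well plates; 48 h exposure; 5 concentrations. Endpoints by linear interpolation between flanking doses. Not reached: highest tested concentration assigned. GI50 is the concentration that inhibits growth by half.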 Active and inactive are the calls of the source. Cut-off read from the data, not from the text of the source: active = GI50 up to about 1.1 µM and inactive = higher.

How the values were obtained:
Experiment in all cases: inhibition of tumour cell growth, NCI panel, 48 h
Hs-578T = tested on: Hs-578T
MOLT-4 = tested on: MOLT-4
SN12C = tested on: SN12C
LOX IMVI = tested on: LOX IMVI
OVCAR-4 = tested on: OVCAR-4
PC-3 = tested on: PC-3
HT-29 = tested on: HT-29
HCT-15 = tested on: HCT-15
SK-MEL-2 = tested on: SK-MEL-2
DLD-1 = tested on: DLD-1
OVCAR-3 = tested on: OVCAR-3
SNB-19 = tested on: SNB-19
IGROV-1 = tested on: IGROV-1
ACHN = tested on: ACHN
COLO 205 = tested on: COLO 205
HCC 2998 = tested on: HCC 2998
OVCAR-5 = tested on: OVCAR-5
SK-OV-3 = tested on: SK-OV-3
CCRF-CEM = tested on: CCRF-CEM
SK-MEL-5 = tested on: SK-MEL-5

Measured: GI50

CC1OC(OC2CC(O)(C(=O)CO)Cc3c(O)c4c(c(O)c32)C(=O)c2ccccc2C4=O)CC(N)C1O (centres undefined)
active: Hs-578T 0.0206 µM | MOLT-4 < 0.01 µM | SN12C < 0.0112 µM | LOX IMVI < 0.01 µM | OVCAR-4 0.0813 µM | PC-3 0.0301 µM | HT-29 < 0.0135 µM | SK-MEL-2 0.0387 µM | DLD-1 < 0.01 µM | OVCAR-3 0.106 µM | SNB-19 < 0.01 µM | IGROV-1 0.12 µM | ACHN < 0.01 µM | COLO 205 < 0.017 µM | HCC 2998 < 0.01 µM | OVCAR-5 0.0242 µM | SK-OV-3 0.0109 µM | CCRF-CEM < 0.01 µM | SK-MEL-5 < 0.0105 µM
0.0708 µM: HCT-15

CC1(c2cccc(C3CCC4(C=CC3=O)OCCO4)c2)OCCO1 (centres undefined)
5.36 µM: HCT-15
inactive: Hs-578T 15.3 µM | MOLT-4 2.84 µM | SN12C 14.5 µM | LOX IMVI 11.8 µM | OVCAR-4 7.28 µM | PC-3 17.2 µM | HT-29 11.8 µM | SK-MEL-2 12.9 µM | DLD-1 3.35 µM | OVCAR-3 5.2 µM | SNB-19 15.9 µM | IGROV-1 18.4 µM | ACHN 4.91 µM | COLO 205 6.14 µM | HCC 2998 18.6 µM | OVCAR-5 18.2 µM | SK-OV-3 30.8 µM | CCRF-CEM 2.49 µM | SK-MEL-5 14.6 µM

CC[C@@H]1NC(C(=O)OC)Cc2c1[nH]c1ccccc21 (some centres undefined)
inactive: MOLT-4 > 100 µM | SN12C > 100 µM | LOX IMVI > 100 µM | OVCAR-4 > 100 µM | HT-29 > 100 µM | SK-MEL-2 > 100 µM | DLD-1 > 100 µM | OVCAR-3 > 100 µM | SNB-19 > 100 µM | IGROV-1 > 100 µM | ACHN > 100 µM | COLO 205 > 100 µM | HCC 2998 > 100 µM | OVCAR-5 > 100 µM | SK-OV-3 > 100 µM | CCRF-CEM > 100 µM | SK-MEL-5 > 100 µM
> 100 µM: HCT-15

c1cc(-c2cn3c(n2)SCC3)ccn1
> 43.2 µM: HCT-15
inactive: MOLT-4 > 100 µM | SN12C > 100 µM | LOX IMVI > 59.2 µM | OVCAR-4 > 100 µM | HT-29 > 100 µM | SK-MEL-2 > 100 µM | DLD-1 > 75.7 µM | OVCAR-3 > 100 µM | SNB-19 > 100 µM | IGROV-1 > 100 µM | ACHN > 100 µM | COLO 205 > 57.8 µM | HCC 2998 > 100 µM | OVCAR-5 > 100 µM | SK-OV-3 > 100 µM | CCRF-CEM > 61.4 µM | SK-MEL-5 > 100 µM

CC(/C=C/C(=O)c1sc(-n2nc(-c3ccccc3)cc2-c2ccccc2)nc1C)=C\c1ccccc1
19.2 µM: HCT-15
inactive: MOLT-4 9.06 µM | SN12C 40.3 µM | LOX IMVI 71.9 µM | OVCAR-4 7.43 µM | HT-29 > 10 µM | SK-MEL-2 34.3 µM | DLD-1 29.9 µM | OVCAR-3 26.7 µM | SNB-19 64.3 µM | IGROV-1 98.4 µM | ACHN 25.6 µM | COLO 205 > 10 µM | HCC 2998 23.7 µM | OVCAR-5 > 10 µM | SK-OV-3 38.4 µM | CCRF-CEM 27.7 µM | SK-MEL-5 15.5 µM

COC(=O)[C@]12CC=C3O[C@@H]4OC5(CCCCC5)O[C@@H]4C3[C@@H]1C(=O)CCC2=O (some centres undefined)
inactive: MOLT-4 > 100 µM | SN12C > 100 µM | LOX IMVI > 100 µM | OVCAR-4 > 100 µM | HT-29 > 100 µM | SK-MEL-2 > 100 µM | DLD-1 > 100 µM | OVCAR-3 36.5 µM | SNB-19 > 100 µM | IGROV-1 > 100 µM | ACHN > 100 µM | COLO 205 > 100 µM | HCC 2998 > 100 µM | OVCAR-5 > 100 µM | SK-OV-3 > 100 µM | CCRF-CEM > 100 µM | SK-MEL-5 > 100 µM
> 100 µM: HCT-15

COc1ccc(/C=N/NS(=O)(=O)c2ccccc2)cc1
inactive: MOLT-4 > 100 µM | SN12C > 100 µM | LOX IMVI > 100 µM | OVCAR-4 > 100 µM | HT-29 > 100 µM | SK-MEL-2 > 100 µM | DLD-1 > 100 µM | OVCAR-3 > 100 µM | IGROV-1 > 100 µM | ACHN > 100 µM | COLO 205 > 100 µM | HCC 2998 > 100 µM | OVCAR-5 > 100 µM | SK-OV-3 > 100 µM | CCRF-CEM > 100 µM | SK-MEL-5 > 100 µM
> 100 µM: HCT-15
